# Measurements from patent publication US7361658B2, “2-acylaminothiazole derivative or salt thereof” (Astellas Pharma Inc., priority 2003, dated 2008).
# Key:
# human c-mpl-Ba/F3 cells [1] = biological target: T1, human c-mpl-Ba/F3 cells (Homo sapiens, UniProt P40238); experiment: Human c-mpl-Ba/F3 cell growth test; assay type: cell-based; conditions: for Pot: concentration at which cell growth is accelerated by 30% of the maximum cell growth activity of compound A, 24 h culture; for Emax: maximum cell growth activity, maximum of compound A defined as 100%, read-out: Efficacy
# T1 construct: expressed in transfected cells; host or cells: Ba/F3 (murine pro-B cells) expressing human c-mpl
# T1 sequence (P40238 26-635): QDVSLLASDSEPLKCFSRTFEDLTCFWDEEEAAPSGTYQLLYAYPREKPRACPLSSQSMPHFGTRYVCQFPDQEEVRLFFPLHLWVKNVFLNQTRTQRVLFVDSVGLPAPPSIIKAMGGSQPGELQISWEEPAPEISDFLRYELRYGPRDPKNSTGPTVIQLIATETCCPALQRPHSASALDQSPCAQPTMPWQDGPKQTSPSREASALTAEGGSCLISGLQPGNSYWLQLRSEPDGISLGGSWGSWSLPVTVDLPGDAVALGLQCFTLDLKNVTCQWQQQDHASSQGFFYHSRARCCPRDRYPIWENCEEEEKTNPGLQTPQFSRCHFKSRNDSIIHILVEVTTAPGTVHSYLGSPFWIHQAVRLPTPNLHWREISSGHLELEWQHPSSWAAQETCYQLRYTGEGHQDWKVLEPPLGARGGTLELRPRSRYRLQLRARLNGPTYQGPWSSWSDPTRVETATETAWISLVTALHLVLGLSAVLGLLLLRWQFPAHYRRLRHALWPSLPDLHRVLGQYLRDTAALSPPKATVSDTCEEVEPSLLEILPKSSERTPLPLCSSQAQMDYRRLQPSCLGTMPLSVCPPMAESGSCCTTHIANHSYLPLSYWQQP
# Procedure: (i) Human c-mpl-Ba/F3 Cell Growth Test
# In a 96-well microplate, 2×10^5 cells/ml of human c-mpl-Ba/F3 cells were cultured at 37° C. in 10% fetal bovine serum-containing RPMI1640 medium (100 μl/well) containing each test compound at each concentration. After 24 hours from the start-up of culture, 10 μl/well of WST-1/1-methoxy PMS (cell counting kit, Dojin) was added. Immediately after addition and 2 hours after addition, absorbance of A450/A650 was measured with a microplate reader (Model 3350: Bio-Rad), and an increase in absorbance for 2 hours was defined as a growth activity of each test compound.
# pot: Concentration of each test compound at which to accelerate cell growth by 30% of a maximum cell growth activity of compound A (compound A and rhTPO in rhTPO)
# Efficacy: Maximum cell growth activity of each test compound when a maximum cell growth activity of compound A (compound A and rhTPO in rhTPO) is defined as 100%.
# Compound A refers to a compound in Example 9 of the foregoing Patent Document 10.
# Human CD34+ cells = experiment: Test for measuring a function of accelerating formation of megakaryocytic colonies; assay type: cell-based; conditions: megakaryocytic colony formation, 10 to 14 days, MegaCult-C
# Procedure: (ii) Test for Measuring a Function of Accelerating Formation of Megakaryocytic Colonies
# Human CD34^+ cells were cultured in a 2-well chamber slide in the presence of a test product at 37° C. for from 10 to 14 days using MegaCult™-C (StemCell Technologies). After dehydration and fixation were conducted according to the attached manual, dying was conducted with an anti-glycoprotein IIb/IIIa antibody. The number of colonies for 1 well was counted by a microscope on condition that a population of 3 or more dyed megakaryocytes was one colony. An EC30 value of each test compound was calculated from a dose curve.
# human c-mpl-Ba/F3 cells [2] = biological target: T1, human c-mpl-Ba/F3 cells; experiment: Mouse oral administration test: human c-mpl-Ba/F3 cell growth activity of a plasma after oral administration; assay type: in vivo; conditions: male ICR mouse, plasma 2 h after administration, maximum activity of each test compound = 100%
# Procedure: (iii) Mouse Oral Administration Test
# 3 mg/kg or 10 mg/kg (100 mg/kg in Comparative Compounds 1 to 3) of a test compound dissolved or suspended in a 0.5% methylcellulose aqueous solution was orally administered to a male ICR mouse. After 2 hours from administration, a blood was sampled from the subabdominal large vein using 1/10-volume 3.8% sodium citrate as an anticoagulant. Centrifugation was performed at 12,000 rpm for 3 minutes. The resulting plasma was heated at 56° C. for 30 minutes, and added to a system of the human c-mpl-Ba/F3 cell growth test described in (i) such that the final concentration of the plasma reached 0.3%, 1% or 3% (10% in Comparative Compounds 1 to 3) to measure a cell growth activity. The cell growth activity (%) of each plasma was measured when the maximum cell growth activity of each test compound was defined as 100%.
Pot (human c-mpl-Ba/F3 cells [1]) [nM],Emax (human c-mpl-Ba/F3 cells [1]) [%],"Cell growth activity (human c-mpl-Ba/F3 cells [2]; 3 mg/kg p.o., dilution rate 3%)","Cell growth activity (human c-mpl-Ba/F3 cells [2]; 3 mg/kg p.o., dilution rate 1%) [%]","Cell growth activity (human c-mpl-Ba/F3 cells [2]; 10 mg/kg p.o., dilution rate 3%) [%]",SMILES,EC30 value (Human CD34+ cells) [nM]
2.0,110,≧80%,–,–,"CCCCN(C)Cc1sc(NC(=O)c2cnc(N3CCC(C(=O)O)CC3)c(Cl)c2)nc1-c1cc(Cl)cs1 [Example 71, 1-(5-{[5-{[butyl(methyl)amino]methyl}-4-(4-chlorothiophen-2-yl)thiazol-2-yl]carbamoyl}-3-chloro-2-pyridyl)piperidin-4-carboxylic acid]",20
2.9,117,≧80%,–,–,"CN(Cc1sc(NC(=O)c2cnc(N3CCC(C(=O)O)CC3)c(Cl)c2)nc1-c1cc(Cl)cs1)C1CCC1 [Example 100, 1-{3-chloro-5-[(4-(4-chlorothiophen-2-yl)-5-{[cyclobutyl(methyl)amino]methyl}thiazol-2-yl)carbamoyl]-2-pyridyl}piperidine-4-carboxylic acid]",34
3.5,105,–,63,–,"CC(C)N(C)Cc1sc(NC(=O)c2cnc(N3CCC(C(=O)O)CC3)c(Cl)c2)nc1-c1cc(Cl)cs1 [Example 104, 1-{3-chloro-5-[(4-(4-chlorothiophen-2-yl)-5-{[isopropyl(methyl)amino]methyl}thiazol-2-yl)carbamoyl]-2-pyridyl}piperidine-4-carboxylic acid]",36
2.1,112,–,63,–,"C[C@H]1CCCN1Cc1sc(NC(=O)c2cnc(N3CCC(C(=O)O)CC3)c(Cl)c2)nc1-c1cc(Cl)cs1 [Example 106, 1-{3-chloro-5-[(4-(4-chlorothiophen-2-yl)-5-{[(2S)-2-methylpyrrolidin-1-yl]methyl}thiazol-2-yl)carbamoyl]-2-pyridyl}piperidine-4-carboxylic acid]",23
6.1,99,–,–,29,"CCCCN(C)Cc1sc(NC(=O)c2cnc(N3CCNC(=O)C3)c(Cl)c2)nc1-c1cc(Cl)cs1 [Example 153, N-[5-{[butyl(methyl)amino]methyl}-4-(4-chlorothiophen-2-yl)thiazol-2-yl]-5-chloro-6-(3-oxopiperazin-1-yl)nicotinamide]",–
3.2,98,–,–,–,"C[C@@H]1CCCN1Cc1sc(NC(=O)c2cnc(N3CCC(C(=O)O)CC3)c(F)c2)nc1-c1cc(Cl)cs1 [Example 315, 1-{5-[(4-(4-chlorothiophen-2-yl)-5-{[(2R)-2-methylpyrrolidin-1-yl]methyl}thiazol-2-yl)carbamoyl]-3-fluoro-2-pyridyl}piperidin-4-carboxylic acid]",45
